US20110312015A1, “RAPID THROMBOCHEK TEST KIT BASED ON WHOLE BLOOD SCREENING TEST TO DETECT PLATELET HYPERAGGREGATION AT A TEMPERATURE OF 37ºC IN THE CLINICAL LABORATORY” (priority 2008, published 2011)
Like-named read-outs stand apart in the source and are kept apart here.

How the values were obtained:
[1] = test system: platelets; assay: Platelet aggregation in blood anticoagulated with D-Phe-Pro-Arg chloromethyl ketone dihydrochloride; type: cell-based; details: aggregation caused by addition of agonist
Text: Heparin, Na Citrate 3.2% can also be used instead of citrate 3.8% as anticoagulant to study platelet hyperaggregation.

[2] = test system: platelets in whole blood; details: 0.5 uM Epinephrine, 180 seconds
Protocol: Collecting a blood sample from an individual in EDTA anticoagulant vacutainer first and then taking blood in trisodium citrate-anticoagulant vacutainer with the same venipuncture and mixing both the samples with the respective anticoagulants at least 15 to 20 times by inversion and allowing EDTA sample to stand at room temperature for a minimum of 20 minutes and then within two hours of collection, the EDTA sample is analysed on an automated hematology analyser to determine the platelet count and appropriate aliquote of citrate sample is taken in a plastic cuvette with a magnetic bar and stirred for 3 minutes at 37° C. and a weak agonist of platelet aggregation in low concentration is added to stirred citrate sample and further stirred for another three minutes at 37° C. At the end of these last three minutes the stirred citrate agonist treated sample is analysed on an hematology analyser for platelet count. Difference between EDTA platelet count and agonist treated stirred citrate platelet count, percentage of platelet aggregation is calculated by dividing the difference by EDTA platelet count and multiplying it by 100.
All samples were collected in the morning when the subjects were fasting. Blood was collected in Plain vaccutainer then EDTA vacutainer by a clean venipuncture using a 20 G needle and then in the 3.8% Na citrate (1:10 dil) vacutainer. Both these anticoagulated blood samples were thoroughly mixed with respective anticoagulants by inversion (15 to 20 times) and the EDTA sample was made to stand at room temperature for 20 minutes after collection and only then analysed for platelet count measurements on the automated hematology analyser. Both samples were analysed within two hours of collection. […]

[3] = test system: hyperactive platelets; assay: Assessment of efficacy of antiplatelet treatment in patients by Rapid Thrombochek test and microscopic method; type: in vivo, human; details: twenty myocardial infarction patients on daily aspirin for minimum 3 weeks; both methods
Protocol: Tests were carried out on healthy adults (male and female) and the normals were established. The test was carried out on patients of diabetes mellitus and known cases of myocardial infarction. […] All the smears were prepared by taking a drop of blood on slide and making a smear by cover slide method of smear preparation. All the smears were fixed in alcohol after drying and stained with […] stain and examined under oil immersion lense. Platelets free and in aggregates were counted and percentage of aggregation was worked out. TWENTY PATIENTS OF MYOCARDIAL INFARCTION ON DAILY ASPIRIN FOR MINIMUM PERIOD OF 3 WEEKS WERE TESTED BY […] WELL AS BY MICROSCOPIC METHOD FOR ASSESSMENT OF EFFICACY OF ANTIPLATELET TREATMENT.

D-Phe-Pro-Arg chloromethyl ketone dihydrochloride
Effect on agonist-induced platelet aggregation when used as anticoagulant [1]: substantial disaggregation of platelet aggregation

CNC[C@H](O)c1ccc(O)c(O)c1 [Epinephrine, Epinephrine bitartrate]
Platelet Aggregation % at 180 sec. at 37° C., mean (SD) ([2]; Diabetes patients): 35 (12) %
Platelet Aggregation % at 180 sec. at 37° C., mean (SD) ([2]; MI (myocardial infarction) patients): 29 (11) %
Platelet Aggregation % at 180 sec. at 37° C., mean (SD) ([2]; Normal group (healthy adults)): 14.5 (7) %

CC(=O)Oc1ccccc1C(=O)O [ASPIRIN, Aspirin]
Efficacy of antiplatelet treatment (hyperactive platelets above normal range) [3]: LESS THAN EFFECTIVE IN FOUR OF THEM
